Molecular target: T1, CsRD21a (Citrus sinensis, UniProt A0ACB8KUT6)
T1 construct: gene KPL71_016607; full-length, untagged, expressed transiently in Nicotiana benthamiana; secreted, prodomain removed in planta, active forms 25-35 kDa; concentrated apoplastic fluid, not purified
Assay: competitive activity-based protein profiling, DCG-04 / streptavidin-HRP blot
Format: biochemical
Conditions: apoplastic fluid; 30 min preincubation; 50 mM sodium acetate pH 5.0, 5 mM DTT, room temperature

T1 sequence (A0ACB8KUT6 139-468): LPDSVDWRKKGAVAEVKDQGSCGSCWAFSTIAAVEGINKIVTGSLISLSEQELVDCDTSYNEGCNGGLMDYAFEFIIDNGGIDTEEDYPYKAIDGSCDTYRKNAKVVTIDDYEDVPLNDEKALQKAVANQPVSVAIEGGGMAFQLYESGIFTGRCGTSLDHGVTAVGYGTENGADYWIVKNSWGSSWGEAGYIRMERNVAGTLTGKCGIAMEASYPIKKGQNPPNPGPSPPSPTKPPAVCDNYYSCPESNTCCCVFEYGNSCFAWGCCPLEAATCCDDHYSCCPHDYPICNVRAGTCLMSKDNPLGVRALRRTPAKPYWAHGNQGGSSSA

SMILES: CC(C)C[C@H](NC(=O)[C@H]1O[C@@H]1C(=O)O)C(=O)NCCCCNC(=N)N [E-64]
- decrease of DCG-04 labelling, dosage-dependent: This signal decreased in the presence of the cysteine protease inhibitor E-64 in a dosage-dependent manner
